Active and inactive are the calls of the source. The rule behind the calls is not given here.
Key:
K562 [1] = experiment: Effect on RNA splicing in human K562 cells assessed as ESPL1 gene alternative 5' splicing site at 2 uM incubated for 12 hrs by RNA-seq analysis; format: functional, cell-based
K562 [2] = experiment: Induction of spliceosome function impairment in human K562 cells assessed as increase in NCKAP1L RI transcript incubated for 12 hrs by qRT-PCR analysis; format: functional, cell-based; conditions: dose 1-10 µM
MV4-11 [3] = experiment: Induction of spliceosome function impairment in human MV4-11 cells assessed as decrease in NCKAP1L transcript at 1 to 10 uM incubated for 12 hrs by qRT-PCR analysis; format: functional, cell-based; conditions: dose 1-10 µM
K562 [4] = experiment: Induction of spliceosome function impairment in human K562 cells assessed as increase in PRPF38A RI transcript incubated for 12 hrs by qRT-PCR analysis; format: functional, cell-based; conditions: dose 1-10 µM
HCT-116 [5] = experiment: Downregulation of CENPI expression in human HCT-116 cells incubated for 24 hrs by Western blot analysis; format: functional, cell-based
MV4-11 [6] = experiment: Induction of spliceosome function impairment in human MV4-11 cells assessed as increase in PRPF38A RI transcript incubated for 12 hrs by qRT-PCR analysis; format: functional, cell-based; conditions: dose 1-10 µM
[7] = Effect on RNA splicing in human HCT-116 cells assessed as number of mutually exclusive exons at 2 uM incubated for 12 hrs by RNA-seq analysis; format: functional
K562 [8] = experiment: Induction of spliceosome function impairment in human K562 cells assessed as decrease in CUL4A transcript at 1 to 10 uM incubated for 12 hrs by qRT-PCR analysis; format: functional, cell-based; conditions: dose 1-10 µM
HCT-116 [9] = experiment: Downregulation of CEP192 expression in human HCT-116 cells incubated for 24 hrs by Western blot analysis; format: functional, cell-based
HCT-116 [10] = experiment: Effect on mitosis in human HCT-116 cells assessed as disorganized spindle phenotype at 1 uM incubated for 48 hrs by immunofluorescence based analysis; format: functional, cell-based
K562 [11] = experiment: Effect on RNA splicing in human K562 cells assessed as CEP192 gene skipping exon at 2 uM incubated for 12 hrs by RNA-seq analysis; format: functional, cell-based
HCT-116 [12] = experiment: Downregulation of RTTN expression in human HCT-116 cells incubated for 24 hrs by Western blot analysis; format: functional, cell-based
[13] = Effect on mitosis in human HCT-116 cells assessed as defective mitotic cells at 1 uM incubated for 48 hrs by immunofluorescence based analysis relative to control; format: functional
HCT-116 [14] = experiment: Induction of RBM39 degradation in human HCT-116 cells assessed as fold change at 0.1 uM incubated for 24 hrs by Western blot analysis relative to control; format: cell-based
K562 [15] = experiment: Effect on RNA splicing in human K562 cells assessed as RTTN gene skipping exon at 2 uM incubated for 12 hrs by RNA-seq analysis; format: functional, cell-based
K562 [16] = experiment: Effect on RNA splicing in human K562 cells assessed as CEP192 gene retention of introns up to 10 uM by PCR analysis; format: functional, cell-based; conditions: time 1-24 hrs
K562 [17] = experiment: Induction of spliceosome function impairment in human K562 cells assessed as decrease in NCKAP1L transcript at 1 to 10 uM incubated for 12 hrs by qRT-PCR analysis; format: functional, cell-based; conditions: dose 1-10 µM
HCT-116 [18] = experiment: Induction of RBM39 degradation in human HCT-116 cells at 3 to 300 nM incubated for 24 hrs in presence of MLN4924 by Western blot analysis; format: cell-based; conditions: dose 3-300 nM
MV4-11 [19] = experiment: Induction of spliceosome function impairment in human MV4-11 cells assessed as decrease in CUL4A transcript at 1 to 10 uM incubated for 12 hrs by qRT-PCR analysis; format: functional, cell-based; conditions: dose 1-10 µM
HCT-116 [20] = experiment: Downregulation of KNL1 expression in human HCT-116 cells incubated for 24 hrs by Western blot analysis; format: functional, cell-based
K562 [21] = experiment: Effect on RNA splicing in human K562 cells assessed as CEP192 gene skipping exons up to 10 uM by PCR analysis; format: functional, cell-based; conditions: time 1-24 hrs
HCT-116 [22] = experiment: Effect on RNA splicing in human HCT-116 cells assessed as CEP192 gene exon splicing at 2 uM incubated for 12 hrs by RNA-seq analysis; format: functional, cell-based
HCT-116 [23] = experiment: Effect on RNA splicing in human HCT-116 cells assessed as MCL-1 gene alternative splicing at 2 uM incubated for 12 hrs by RNA-seq analysis; format: functional, cell-based
K562 [24] = experiment: Induction of spliceosome function impairment in human K562 cells assessed as decrease in PRPF38A transcript at 1 to 10 uM incubated for 12 hrs by qRT-PCR analysis; format: functional, cell-based; conditions: dose 1-10 µM
K562 [25] = experiment: Induction of spliceosome function impairment in human K562 cells assessed as increase in CUL4A RI transcript incubated for 12 hrs by qRT-PCR analysis; format: functional, cell-based; conditions: dose 1-10 µM
HCT-116 [26] = experiment: Induction of spliceosome function impairment in human HCT-116 cells assessed as decrease in ZNF207 exon8-exon10 RNA level at 1 to 10 uM incubated for 12 hrs by qRT-PCR analysis; format: functional, cell-based; conditions: dose 1-10 µM
HCT-116 [27] = experiment: Effect on RNA splicing in human HCT-116 cells assessed as KNL1 gene exon splicing at 2 uM incubated for 12 hrs by RNA-seq analysis; format: functional, cell-based
HCT-116 [28] = experiment: Induction of RBM39 degradation in human HCT-116 cells incubated for 24 hrs by Western blot analysis; format: cell-based
K562 [29] = experiment: Induction of spliceosome function impairment in human K562 cells assessed as decrease in ZNF207 transcript at 1 to 10 uM incubated for 12 hrs by qRT-PCR analysis; format: functional, cell-based; conditions: dose 1-10 µM
HCT-116 [30] = experiment: Effect on RNA splicing in human HCT-116 cells assessed as ESPL1 gene alternative 5' splice site at 2 uM incubated for 12 hrs by RNA-seq analysis; format: functional, cell-based
HCT-116 [31] = experiment: Induction of cell cycle arrest in human HCT-116 cells assessed as accumulation at G2/M phase at 0.1 to 5 uM incubated for 48 hrs by PI staining based flow cytometry; format: functional; conditions: dose 0.1-5 µM
MV4-11 [32] = experiment: Induction of spliceosome function impairment in human MV4-11 cells assessed as increase in CUL4A RI transcript incubated for 12 hrs by qRT-PCR analysis; format: functional, cell-based; conditions: dose 1-10 µM
MV4-11 [33] = experiment: Induction of spliceosome function impairment in human MV4-11 cells assessed as increase in NCKAP1L RI transcript incubated for 12 hrs by qRT-PCR analysis; format: functional, cell-based; conditions: dose 1-10 µM
K562 [34] = experiment: Effect on RNA splicing in human K562 cells assessed as ESPL1 gene skipping exon at 2 uM incubated for 12 hrs by RNA-seq analysis; format: functional, cell-based
HCT-116 [35] = experiment: Induction of RBM39 degradation in human HCT-116 cells assessed as fold change at 1 uM incubated for 24 hrs by Western blot analysis relative to control; format: cell-based
HCT-116 [36] = experiment: Antiproliferative activity against human HCT-116 cells incubated for 4 days by CCK8 assay; format: functional, cell-based; conditions: HCT-116, 96 h
HCT-116 [37] = experiment: Induction of apoptosis in human HCT-116 cells assessed as change in PARP level at 0.1 to 5 uM incubated for 48 hrs by Western blot analysis; format: functional, cell-based; conditions: dose 0.1-5 µM
[38] = Effect on RNA splicing in human HCT-116 cells assessed as number of alternative 5' splice sites at 2 uM incubated for 12 hrs by RNA-seq analysis; format: functional
HCT-116 [39] = experiment: Induction of RBM39 degradation in human HCT-116 cells at 0.1 to 1 uM incubated for 24 hrs by Western blot analysis; format: cell-based; conditions: dose 0.1-1 µM

Row | SMILES | Activity (K562 [1]) | Activity (K562 [2]) | Activity (MV4-11 [3]) | Activity (K562 [4]) | Activity (HCT-116 [5]) | Activity (MV4-11 [6]) | Activity [7] | Activity (K562 [8]) | Activity (HCT-116 [9]) | Activity (HCT-116 [10]) | Activity (K562 [11]) | Activity (HCT-116 [12]) | Activity [13] | fold change (FC) (HCT-116 [14]) | Activity (K562 [15]) | Activity (K562 [16]) | Activity (K562 [17]) | Activity (HCT-116 [18]) | Activity (MV4-11 [19]) | Activity (HCT-116 [20]) | also measured
1 | Cc1ccc(NS(=O)(=O)c2cccc(NC(=O)C(=O)N3CCC[C@@H]3CO)c2)c2[nH]cc(C#N)c12 | Active | Active | Active | Active | Dose-dependent-effect | Active | 515 | Active | Dose-dependent-effect | Active; Disorganized Spindle Phenotype Was Characterized By Random Microtubule Distribution Surrounding Condensed And Undivided Chromosomes | Active | Dose-dependent-effect | 21.8% | 0.61 | Active | Time-dependent-effect; Observed Retention Of Introns Between Exons 27 And 28 | Active | inactive | Active | Dose-dependent-effect | Activity (K562 [21]): Time-dependent-effect; Observed Skipping Exons 42 And 28; Activity (HCT-116 [22]): Active; Activity (HCT-116 [23]): No effect; Activity (K562 [24]): Active; Activity (K562 [25]): Active; Activity (HCT-116 [26]): Active; Activity (HCT-116 [27]): Active; Activity (HCT-116 [28]): Dose-dependent-effect; Activity (K562 [29]): Active; Activity (HCT-116 [30]): Active; Activity (HCT-116 [31]): Active; Activity (MV4-11 [32]): Active; Activity (MV4-11 [33]): Active; Activity (K562 [34]): Active; fold change (FC) (HCT-116 [35]): 0.21; IC50 (HCT-116 [36]): 36.7 nM; Activity (HCT-116 [37]): inactive; Activity [38]: 329; Activity (HCT-116 [39]): Active
2 | NS(=O)(=O)c1ccc(S(=O)(=O)Nc2cccc3c(Cl)c[nH]c23)cc1 [INDISULAM] | Active | Active | Active | Active | Dose-dependent-effect | Active | 667 | Active | Dose-dependent-effect | Active; Disorganized Spindle Phenotype Was Characterized By Random Microtubule Distribution Surrounding Condensed And Undivided Chromosomes | Active | Dose-dependent-effect | 18.3% | 0.59 | Active | Time-dependent-effect; Observed Retention Of Introns Between Exons 27 And 28 | Active | inactive | Active | Dose-dependent-effect | Activity (K562 [21]): Time-dependent-effect; Observed Skipping Exons 42 And 28; Activity (HCT-116 [22]): Active; Activity (HCT-116 [23]): No effect; Activity (K562 [24]): Active; Activity (K562 [25]): Active; Activity (HCT-116 [26]): Active; Activity (HCT-116 [27]): Active; Activity (HCT-116 [28]): Dose-dependent-effect; Activity (K562 [29]): Active; Activity (HCT-116 [30]): Active; Activity (HCT-116 [31]): Active; Activity (MV4-11 [32]): Active; Activity (MV4-11 [33]): Active; Activity (K562 [34]): Active; fold change (FC) (HCT-116 [35]): 0.16; IC50 (HCT-116 [36]): 96.8 nM; Activity (HCT-116 [37]): inactive; Activity [38]: 389; Activity (HCT-116 [39]): Active

— ChEMBL document CHEMBL6109117, “Synthesis of an RBM39 Degrader That Downregulates CEP192 and Induces Disorganized Spindle Structures” (J Med Chem, 2025)
